# Laboratory results: patent US5159081A, “Intermediates of peripherally selective N-carbonyl-3,4,4-trisubstituted piperidine opioid antagonists” (Eli Lilly and Company, priority 1991, dated 1992)
# Where a name gives a salt, the structure may show the parent alone. Read-outs that look alike come from different tables or passages of the source.
# What was measured:
# opioid receptor = target: T1, opioid receptor (Mus musculus, UniProt P42866); assay: in vivo; set-up: species or system CF-1 male mice; settings: sc, mouse writhing test, s.c. 20 min before acetic acid, read-out: AD50 (the source's name)
# T1 construct: Five CF-1 male mice (Charles River, Portage, MI); from tissue; host or cells: living CF-1 male mice (whole animal, endogenous receptor)
# [1] = target: peripheral opioid receptors (Mus musculus, UniProt P42866); assay: mouse diarrhea test: precipitated diarrhea in morphine-maintained mice (peripheral opioid activity); assay type: in vivo; settings: mouse diarrhea test, morphine-maintained mice, subcutaneous or oral, 30 min observation
# [2] = tested on: peripheral opioid receptors; assay: as above; assay type: in vivo; settings: AD50 mouse writhing / ED50 mouse diarrhea; higher = greater relative peripheral antagonism
# mu receptor = target: T2, mu receptor (Rattus norvegicus, UniProt P33535); assay: Naloxone [3H] opioid receptor binding assay (mu receptor); set-up: species or system rat (male Sprague Dawley); settings: 20 min; for Ki: rat whole brain minus cerebellum, pH 7.4, 37° C., read-out: Ki
# T2 construct: The brain tissue, rat whole brain minus cerebellum for mu was homogenized; from tissue; host or cells: brain minus cerebellum of male Sprague Dawley rats, homogenate fraction
# [3] = pH 7.4, 10 nM test compound, [3H]naloxone 0.5 nM, mu receptor, read-out: % displacement at 10 nM
# [4] = pH 7.4, 100 nM test compound, [3H]naloxone 0.5 nM, mu receptor, read-out: % displacement at 100 nM
# [5] = pH 7.4, read-out: % displacement at 10 nM
# [6] = pH 7.4, read-out: % displacement at 100 nM
# T2 sequence (P33535 whole entry): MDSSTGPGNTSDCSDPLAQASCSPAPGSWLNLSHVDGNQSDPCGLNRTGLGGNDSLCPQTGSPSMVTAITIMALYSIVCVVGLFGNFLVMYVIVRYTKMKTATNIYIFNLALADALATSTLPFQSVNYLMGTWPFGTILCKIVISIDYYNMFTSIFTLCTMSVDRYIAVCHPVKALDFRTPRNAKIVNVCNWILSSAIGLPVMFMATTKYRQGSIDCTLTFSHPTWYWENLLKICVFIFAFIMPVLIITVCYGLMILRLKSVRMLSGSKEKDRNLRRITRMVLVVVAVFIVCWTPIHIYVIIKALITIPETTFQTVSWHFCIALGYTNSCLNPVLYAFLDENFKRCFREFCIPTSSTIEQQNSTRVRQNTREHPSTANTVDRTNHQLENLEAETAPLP
# Chain of peripheral opioid receptors (Mus musculus, UniProt P42866) (P42866 whole entry): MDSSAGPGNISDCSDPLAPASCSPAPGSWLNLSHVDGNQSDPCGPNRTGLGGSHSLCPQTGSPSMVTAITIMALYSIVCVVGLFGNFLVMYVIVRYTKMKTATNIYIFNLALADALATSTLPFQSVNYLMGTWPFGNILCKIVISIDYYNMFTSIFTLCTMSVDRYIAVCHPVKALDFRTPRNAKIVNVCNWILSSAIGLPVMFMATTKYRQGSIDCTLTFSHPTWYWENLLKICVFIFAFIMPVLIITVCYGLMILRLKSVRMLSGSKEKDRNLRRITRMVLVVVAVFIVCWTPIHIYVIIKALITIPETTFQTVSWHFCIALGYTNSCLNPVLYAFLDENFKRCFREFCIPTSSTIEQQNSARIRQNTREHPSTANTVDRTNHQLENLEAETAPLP
# T1 sequence (P42866 whole entry): as above
Structure (SMILES),ED50 (opioid receptor; […]) [mg/kg],"ED50 ([1]; 0.5 h, read-out: ED50) [mg/kg]",Ratio (ratio of AD50 to ED50) [2],inhibition at 0.01 µM (mu receptor; [3]) [%],inhibition at 0.1 µM (mu receptor; [4]) [%],ED50 (opioid receptor; dose of antagonist that reduced inhibition of writhing by 1.25 mg/kg morphine sulfate to 50%) [mg/kg],ED50 [1] [mg/kg],inhibition at 0.01 µM (mu receptor; [5]) [%],inhibition at 0.1 µM (mu receptor; [6]) [%],Ki (mu receptor; [3H]naloxone 0.5 nM) [nM]
COC1CCC(OC(=O)CCCC(=O)N[C@@H](CC2CCCCC2)CN2CC[C@](C)(c3cccc(O)c3)[C@H](C)C2)CC1 (stereo partly shown) [Example 69],> 40,0.03,> 1333,37,83,–,–,–,–,–
CC(C)COC(=O)CCCC(=O)N[C@H](CC1CCCCC1)CN1CC[C@@](C)(c2cccc(O)c2)[C@@H](C)C1 [Example 59],> 40,0.059,> 678,6,53,–,–,–,–,–
"C[C@H]1CN(CCC(NC(=O)C(CCCNC(=N)N[N+](=O)[O-])NC(=O)CCCC(=O)NCc2ccccc2)c2ccccc2)CC[C@@]1(C)c1cccc(O)c1 (single isomer, unassigned; (-)) [Example 8, (-)-N-(1-phenyl-3-(trans-4-(3-hydroxyphenyl)-3,4-dimethyl-1-piperidinyl)propyl)-2-((1,5-dioxo-5-(phenylmethyl)amino)pentyl)amino-5-((imino(nitroamino)methyl)-amino)pentanamide]",–,–,> 2,–,–,> 1.25,0.64,95,99,0.68
CC(C)COC(=O)CCCC(=O)N[C@H](CC1CCCCC1)CN1CC[C@](C)(c2cccc(O)c2)[C@H](C)C1 [Example 58],> 40,0.17,> 235,0,38,–,–,–,–,–
C[C@@H]1CN(C[C@H](CC2CCCCC2)NC(=O)CCCC(=O)O)CC[C@]1(C)c1cccc(O)c1 [Example 47D],> 40,–,> 4000,–,–,–,0.01,85,95,1.55
"CCNC(=O)N[C@H](Cc1ccccc1)CN1CC[C@](C)(c2cccc(O)c2)[C@H](C)C1 [Example 17, N-Ethyl-N'-2-(D-(1-(trans-4-(3-hydroxyphenyl)-3,4-dimethyl-1-piperidinyl)-3-phenyl)propyl)urea hydrochloride monohydrate]",> 40,3.28,> 12,38,82,–,–,–,–,–
CCCCCCCOC(=O)CCCC(=O)N[C@@H](CC1CCCCC1)CN1CC[C@@](C)(c2cccc(O)c2)[C@@H](C)C1 [Example 57],> 40,0.068,> 588,0,9,–,–,–,–,–
CCNC(=O)COC(=O)CCCC(=O)N[C@@H](CC1CCCCC1)CN1CC[C@](C)(c2cccc(O)c2)[C@H](C)C1 [Example 65],> 40,–,> 2000,–,–,–,0.02,67,93,–
"CCOC(=O)CCC(=O)NC(CCN1CC[C@@](C)(c2cccc(O)c2)[C@@H](C)C1)CC(C)C (stereo partly shown) [Example 2B, 4-[[1-[2-[4-(3-hydroxyphenyl)-3,4-dimethyl-1-piperidinyl]-ethyl]-3-methylbutyl)amino]-4-oxobutanoic acid ethyl ester]",10.2,–,54,–,–,–,0.19,93,99,1.2
CNC(=O)COC(=O)CCCC(=O)N[C@@H](CC1CCCCC1)CN1CC[C@](C)(c2cccc(O)c2)[C@H](C)C1 [Example 62],> 40,–,> 1333,–,–,–,0.03,70,96,–
"CCOC(=O)CCCC(=O)N(CCN1CC[C@@](C)(c2cccc(O)c2)[C@@H](C)C1)C1CCCCC1 (relative stereo) [Example 32, 5-(Cyclohexyl-(2-(trans-4-(3-hydroxyphenyl)-3,4-dimethyl-1-piperidinyl)ethyl)amino)-5-oxopentanoic acid ethyl ester monohydrochloride]",9.4,0.16,59,40,100,–,–,–,–,–
